Structures can show the parent of a compound that is named as a salt.
Legend:
Assay type in all cases: physicochemical
[1] = Physical stability at elevated temperatures (impurities by HPLC); conditions: for 4-Epi-Tigecycline 7 days at 80° C. / Total impurities 7 days at 80° C. / Stability in words (impurities after storage): stored 7 days at 80° C.; for 4-Epi-Tigecycline 7 days at 80° C. / Total impurities 7 days at 80° C.: in % (unit assumed)
Source text: Tigecycline must be available in a physically stable form as well, in order to avoid degradation and as a consequence the building of undesired byproducts. Table 4 compares the stability data of the different crystalline forms of Tigecycline free base and Tigecycline hydrochloride with these of crystalline form C of Tigecycline dihydrochloride from the present invention.
Therefore crystalline form C of Tigecycline dihydrochloride in essentially pure polymorphic form is more preferred than amorphous Tigecycline dihydrochloride.

physchem = assay: physchem
Protocol: The finished dosage form contains lyophilized amorphous Tigecycline respectively Tigecycline hydrochloride. Before lyophilizing, Tigecycline respectively acid addition salts of Tigecycline are dissolved in water, thus water solubility is an important factor to consider.
A UV-vis Lambda 35 spectrophotometer (Perkin-Elmer) was used (λ=347 nm, 1.0 cm quartz cells). Perkin Elmer® UV Win Lab-5.1 software was used.
A saturated solution of Tigecycline, Tigecycline hydrochloride or Tigecycline dihydrochloride in distilled water was prepared and the suspension was stirred at room temperature for 30 minutes with a stirring speed of 1000 U/min. The suspension was filtered through a 0.45 μm filter. Finally the resulting solution was diluted 10000-fold and measured against water at a wavelength of 347 nm.

[2] = Thermodynamical stability (crystal structure after storage); conditions: stored 7 days at 80° C.
[3] = Water content on storage at defined relative humidity; conditions: stored at about 0% relative humidity
Source text: Form C of Tigecycline dihydrochloride is an anhydrous form, containing no water when stored at about 0% relative humidity and containing not more than about 0.8% to 1.7% e.g. when stored at about 50% relative humidity.

Structure (SMILES)	4-Epi-Tigecycline at ambient conditions [1]	Total impurities at ambient conditions [1]	4-Epi-Tigecycline 7 days at 80° C. [1]	Total impurities 7 days at 80° C. [1]	further results
CN(C)c1cc(NC(=O)CNC(C)(C)C)c(O)c2c1C[C@H]1C[C@H]3[C@H](N(C)C)C(O)=C(C(N)=O)C(=O)[C@@]3(O)C(O)=C1C2=O [WO 2006/128150 V, Tigecycline]	< 0.05%	0.22%	0.18	0.37	
CN(C)c1cc(NC(=O)CNC(C)(C)C)c(O)c2c1C[C@H]1C[C@H]3[C@H](N(C)C)C(O)=C(C(N)=O)C(=O)[C@@]3(O)C(O)=C1C2=O [WO 2008/066935 IX, Tigecycline]	0.15%	0.43%	0.70	2.13	
CN(C)c1cc(NC(=O)CNC(C)(C)C)c(O)c2c1C[C@H]1C[C@H]3[C@H](N(C)C)C(O)=C(C(N)=O)C(=O)[C@@]3(O)C(O)=C1C2=O [WO 2006/128150 I, Tigecycline]	0.36%	0.75%	2.15	11.20	Stability in words (impurities after storage) [1]: tremendous increase in total impurities
CN(C)c1cc(NC(=O)CNC(C)(C)C)c(O)c2c1C[C@H]1C[C@H]3[C@H](N(C)C)C(O)=C(C(N)=O)C(=O)[C@@]3(O)C(O)=C1C2=O [A (xHCl), Tigecycline hydrochloride]					4-Epi-Tigecycline at ambient conditions ([1]; hydrochloride): 0.84%; Total impurities at ambient conditions ([1]; hydrochloride): 1.07%; 4-Epi-Tigecycline 7 days at 80° C. ([1]; hydrochloride): 0.89; Total impurities 7 days at 80° C. ([1]; hydrochloride): 1.81; Water solubility, Concentration (physchem; 30 min): 503 mg/mL; solubility at 30 min (physchem; water, thermodynamic from solid, Water solubility, Concentration): 503 mg/mL
CN(C)c1cc(NC(=O)CNC(C)(C)C)c(O)c2c1C[C@H]1C[C@H]3[C@H](N(C)C)C(O)=C(C(N)=O)C(=O)[C@@]3(O)C(O)=C1C2=O [WO 2006/128150 IV, Tigecycline]	0.23%	0.4%	0.38	0.87	
CN(C)c1cc(NC(=O)CNC(C)(C)C)c(O)c2c1C[C@H]1C[C@H]3[C@H](N(C)C)C(O)=C(C(N)=O)C(=O)[C@@]3(O)C(O)=C1C2=O [WO 2007/127292 II, Tigecycline]					4-Epi-Tigecycline at ambient conditions ([1]; listed as WO 2007/127792 II): 0.17%; Total impurities at ambient conditions ([1]; listed as WO 2007/127792 II): 0.24%; 4-Epi-Tigecycline 7 days at 80° C. ([1]; listed as WO 2007/127792 II): 0.38; Total impurities 7 days at 80° C. ([1]; listed as WO 2007/127792 II): 0.91
CN(C)c1cc(NC(=O)CNC(C)(C)C)c(O)c2c1C[C@H]1C[C@H]3[C@H](N(C)C)C(O)=C(C(N)=O)C(=O)[C@@]3(O)C(O)=C1C2=O [B (xHCl), Tigecycline hydrochloride]					4-Epi-Tigecycline at ambient conditions ([1]; hydrochloride): 0.93%; Total impurities at ambient conditions ([1]; hydrochloride): 1.91%; 4-Epi-Tigecycline 7 days at 80° C. ([1]; hydrochloride): 1.60; Total impurities 7 days at 80° C. ([1]; hydrochloride): 4.19
CN(C)c1cc(NC(=O)CNC(C)(C)C)c(O)c2c1C[C@H]1C[C@H]3[C@H](N(C)C)C(=O)C(C(N)=O)=C(O)[C@@]3(O)C(=O)C1=C2O [WO 2006/128150 III, Tigecycline]	0.16%	0.16%	2.18	4.46	
CN(C)c1cc(NC(=O)CNC(C)(C)C)c(O)c2c1C[C@H]1C[C@H]3[C@H](N(C)C)C(O)=C(C(N)=O)C(=O)[C@@]3(O)C(O)=C1C2=O [WO 2006/128150 II, Tigecycline]	1.04%	1.6%	10.83	18.44	Stability in words (impurities after storage) [1]: tremendous increase in total impurities
CN(C)c1cc(NC(=O)CNC(C)(C)C)c(O)c2c1C[C@H]1C[C@H]3[C@H](N(C)C)C(=O)C(C(N)=O)=C(O)[C@@]3(O)C(=O)C1=C2O [WO 2008/066935 XII, Tigecycline]	0.15%	0.4%	0.70	4.38	
CN(C)c1cc(NC(=O)CNC(C)(C)C)c(O)c2c1C[C@H]1C[C@H]3[C@H](N(C)C)C(O)=C(C(N)=O)C(=O)[C@@]3(O)C(O)=C1C2=O [C (x2HCl), Tigecycline dihydrochloride]	0.73%	0.83%	2.40	2.60	Change of crystal structure on storage [2]: did not change its crystal structure; Water solubility compared with the other crystalline forms (physchem): highest water solubility; Water content [3]: no water
CN(C)c1cc(NC(=O)CNC(C)(C)C)c(O)c2c1C[C@H]1C[C@H]3[C@H](N(C)C)C(O)=C(C(N)=O)C(=O)[C@@]3(O)C(O)=C1C2=O [amorphous (x2HCl), Tigecycline dihydrochloride]					4-Epi-Tigecycline at ambient conditions ([1]; dihydrochloride): 4.97%; Total impurities at ambient conditions ([1]; dihydrochloride): 5.05%; 4-Epi-Tigecycline 7 days at 80° C. ([1]; dihydrochloride): 16.42; Total impurities 7 days at 80° C. ([1]; dihydrochloride): 18.82
CN(C)c1cc(NC(=O)CNC(C)(C)C)c(O)c2c1C[C@H]1C[C@H]3[C@H](N(C)C)C(O)=C(C(N)=O)C(=O)[C@@]3(O)C(O)=C1C2=O.Cl.Cl [C + 20% amorphous (x2HCl), Tigecycline dihydrochloride]	1.73%	1.81%	4.34	4.88	Stability in words (impurities after storage) [1]: less stable than a pure polymorphic form C
CN(C)c1cc(NC(=O)CNC(C)(C)C)c(O)c2c1C[C@H]1C[C@H]3[C@H](N(C)C)C(O)=C(C(N)=O)C(=O)[C@@]3(O)C(O)=C1C2=O [WO 2007/127292 I, Tigecycline]					4-Epi-Tigecycline at ambient conditions ([1]; listed as WO 2007/127792 I): 0.34%; Total impurities at ambient conditions ([1]; listed as WO 2007/127792 I): 0.59%; 4-Epi-Tigecycline 7 days at 80° C. ([1]; listed as WO 2007/127792 I): 1.26; Total impurities 7 days at 80° C. ([1]; listed as WO 2007/127792 I): 2.22
